Results: ChEMBL document CHEMBL4689842, “EUbOPEN Chemogenomics Library wave 1” (2021)
Where a SMILES comes first, the peptide text is derived from it. [ ]: non-standard residue; d: D form. Arg(Me) = CNC(=N)NCCC[C@H](N)C(=O)O; d4Pal = N[C@H](Cc1ccncc1)C(=O)O; azaGly = NNC(=O)O

How the values were obtained:
Format in all cases: toxicity, cell-based
HEK-293T = test: Incucyte cell viability with HEK293T; conditions: human, 10 µM, compound concentration 10 uM
U2OS = test: Incucyte cell viability with U2OS; conditions: human, 10 µM, compound concentration 10 uM
Fibroblast = test: Incucyte cell viability with human fibroblast; conditions: 10 µM, compound concentration 10 uM
[1] = 0 h, replicate number 1, timepoint 0 hours
[2] = 6 h, replicate number 1, timepoint 6 hours
[3] = 12 h, replicate number 1, timepoint 12 hours
[4] = 12 h, replicate number 2, timepoint 12 hours
[5] = 18 h, replicate number 1, timepoint 18 hours
[6] = 24 h, replicate number 1, timepoint 24 hours
[7] = 0 h, replicate number 2, timepoint 0 hours
[8] = 6 h, replicate number 2, timepoint 6 hours
[9] = 24 h, replicate number 2, timepoint 24 hours
[10] = 18 h, replicate number 2, timepoint 18 hours
Note: filed as whole numbers so only -1 and 0 and 1 occur.

| SMILES | Growth Rate (HEK-293T; [1]) | Growth Rate (HEK-293T; [2]) | Growth Rate (HEK-293T; [3]) | Growth Rate (HEK-293T; [5]) | Growth Rate (HEK-293T; [6]) | Growth Rate (U2OS; [8]) | Growth Rate (U2OS; [3]) | Growth Rate (U2OS; [5]) | Growth Rate (U2OS; [6]) | Growth Rate (Fibroblast; [1]) | Growth Rate (Fibroblast; [2]) | Growth Rate (Fibroblast; [3]) | Growth Rate (Fibroblast; [5]) | Growth Rate (Fibroblast; [6]) | Growth Rate (U2OS; [1]) | Growth Rate (HEK-293T; [7]) | Growth Rate (U2OS; [2]) | further results |
| --- | --- | --- | --- | --- | --- | --- | --- | --- | --- | --- | --- | --- | --- | --- | --- | --- | --- | --- |
| CNC(=N)NCCC[C@H](NC(=O)[C@H](CC(C)C)NC(=O)NNC(=O)[C@H](Cc1ccccc1)NC(=O)[C@H](CO)NC(=O)[C@H](CC(N)=O)NC(=O)[C@@H](Cc1ccncc1)NC(=O)[C@H](N)Cc1ccc(O)cc1)C(=O)N[C@@H](Cc1ccccc1)C(N)=O [KISS1-305] (H-[dY][d4Pal]NSF[azaGly]L[Arg(Me)]F-NH2) | 0 | 0 | 1 | 0 | 0 | 1 | 1 | 0 | 0 | 0 | 0 | 0 | 0 | 0 |  |  |  | Growth Rate (HEK-293T; [4]): 0; Growth Rate (U2OS; [7]): 0 |
| CCc1cc(C(C)=O)c(O)cc1OCCCCCC(C)(C)c1nn[nH]n1 [LY-255283] | 0 | 1 | 0 | 0 | 0 | 0 | 1 | 1 | 1 | 0 | 0 | 0 | 0 | 0 | 0 |  |  | Growth Rate (HEK-293T; [8]): 0; Growth Rate (HEK-293T; [9]): 1; Growth Rate (U2OS; [4]): 0; Growth Rate (U2OS; [10]): 0; Growth Rate (U2OS; [9]): 0 |
| O=C(O)c1ccc(-c2coc3ncc(-c4ccccc4)cc23)cc1Cl | 0 | 0 | 0 | 0 | 0 | 0 | 1 | 1 | 1 |  | 1 | 0 | 0 | 0 |  | 1 | 1 | Growth Rate (HEK-293T; [8]): 1; Growth Rate (U2OS; [7]): 0; Growth Rate (Fibroblast; [7]): 0; Growth Rate (Fibroblast; [8]): 0 |
| Cc1cc(F)c(C(=O)Nc2cccc(-c3nncn3C(C)C)n2)cc1-n1cnc(C2CC2)c1 [SELONSERTIB] |  | 0 | 0 | 0 | 0 |  | 0 | 0 | 1 | 0 |  | 1 | 1 | 1 | 0 | 1 | 0 | Growth Rate (U2OS; [9]): 0 |
| Cc1nc(C(=O)N2CCC[C@H]2Cc2nnc(-c3ccccc3)o2)c(-c2ccccc2F)s1 |  | 0 | 0 | 0 | 0 |  | 0 | 1 | 0 | 1 | 0 | 0 | 1 | 0 |  | 0 | 0 | Growth Rate (U2OS; [9]): 1; Growth Rate (Fibroblast; [9]): 1 |
| N[C@H](C(=O)O)c1ccc(C(=O)O)c(C(=O)O)c1 | 0 | 1 | 1 | 1 | 1 | 1 | 1 | 1 | 1 | 0 | 1 | 1 | 1 | 0 | 0 |  |  |  |
| C=C1/C(=C\C=C2/CCC[C@]3(C)[C@@H]([C@H](C)/C=C/C=C/C(O)(CC)CC)CC[C@@H]23)C[C@@H](O)C[C@@H]1O [SEOCALCITOL] | 0 | 1 | 0 | 0 | 0 | 0 | 1 | 1 | 1 | 0 |  |  |  | 1 |  |  |  | Growth Rate (HEK-293T; [8]): 0; Growth Rate (U2OS; [7]): 1; Growth Rate (U2OS; [10]): 0; Growth Rate (U2OS; [9]): 0; Growth Rate (Fibroblast; [8]): 0; Growth Rate (Fibroblast; [4]): 0; Growth Rate (Fibroblast; [10]): 1 |
| NC(=O)c1ccc(NC(=O)NCc2cccc(C(=O)Nc3ccc4c(c3)CNCC4)c2)cc1 | 0 |  |  | 1 | 0 |  | 1 | 1 | 1 | 0 | 0 | 0 | 1 | 1 | 0 |  | 0 | Growth Rate (HEK-293T; [9]): 1; Growth Rate (Fibroblast; [8]): 1 |
| Cc1cccc(-c2cnc3occ(-c4ccc(C(=O)O)c(C5CCCC5)c4)c3c2)c1 | 1 |  |  | 1 | 1 |  | 1 | 0 | 1 |  | 0 | 0 | 0 | 0 | 0 | 0 | 0 | Growth Rate (U2OS; [4]): 0; Growth Rate (U2OS; [10]): 1; Growth Rate (Fibroblast; [7]): 1 |
| CCC(=O)N1CCOc2c(cc(-c3ccc(OC)c(OC)c3)cc2OC[C@H]2CCCN(C)C2)C1 |  | 0 | 0 | 0 | 0 |  | 1 | 1 | 1 | 0 | 0 | 1 | 1 | 1 | 0 | 1 | 0 | Growth Rate (HEK-293T; [10]): 1; Growth Rate (Fibroblast; [4]): 0; Growth Rate (Fibroblast; [10]): 0; Growth Rate (Fibroblast; [9]): 0 |
| O=S(=O)(c1ccccc1)N(CC(F)(F)F)c1ccc(C(O)(C(F)(F)F)C(F)(F)F)cc1 [T091317] | 0 | 0 | 0 | 0 | 0 |  | 1 | 1 | 1 | 0 | 0 | 0 | 0 | 0 | 0 |  |  | Growth Rate (HEK-293T; [8]): 1 |
| CCCc1nc2c(C)cc(-c3nc4ccccc4n3C)cc2n1Cc1ccc(-c2ccccc2C(=O)O)cc1 | 0 | 0 | 0 | 0 | 0 | 1 | 1 | 1 | 1 | 0 | 1 | 0 | 1 | 0 | 0 |  |  | Growth Rate (U2OS; [9]): 0; Growth Rate (Fibroblast; [4]): 1 |
| CCOc1cc(N2CCC(O)CC2)ccc1Nc1ncc2c(n1)N(C)c1ccccc1C(=O)N2C | 0 |  |  |  | 1 |  | 1 | 1 | 1 | 1 | 1 | 1 | 1 | 1 | 0 | 1 | 0 | Growth Rate (HEK-293T; [8]): 1; Growth Rate (HEK-293T; [4]): 1; Growth Rate (HEK-293T; [10]): 1; Growth Rate (HEK-293T; [9]): 0; Growth Rate (U2OS; [7]): 1; Growth Rate (Fibroblast; [8]): 0 |
| CCC(=O)Nc1cccc(Oc2nc(Nc3ccc(N4CCN(C)CC4)cc3OC)ncc2Cl)c1 |  | 0 | 0 | 0 | 0 | 1 | 0 | 0 | 0 |  |  | 0 | 0 | 0 | 0 |  | 0 | Growth Rate (U2OS; [10]): 1 |
| N#Cc1ccc(NC(=O)Nc2ccccc2Br)c2nn[nH]c12 | 0 |  | 1 | 1 | 1 | 1 | 1 | 1 | 1 | 0 | 1 | 1 | 1 | 1 | 0 |  |  | Growth Rate (HEK-293T; [8]): 1; Growth Rate (U2OS; [7]): 1; Growth Rate (Fibroblast; [7]): 1 |
| C[C@@]1(Cc2ccc(C#N)cc2)C(=O)N(c2cc(Cl)cc(Cl)c2)c2ncc(C(=O)NC3(c4nc(C5CCC5)no4)CC3)n21 [BI 9446] | 0 | 0 | 0 | 0 | 0 | 0 | 1 | 1 | 1 | 0 | 0 | 0 | 0 | 0 | 0 |  |  | Growth Rate (U2OS; [4]): 0; Growth Rate (U2OS; [10]): 0; Growth Rate (U2OS; [9]): 0 |
| COc1cc2c(cc1OCCCN1CCCC1)N=C(N)C21CCC1 | 0 |  |  |  |  |  | 1 | 1 | 1 | 0 |  |  | 1 | 1 | 0 |  | 1 | Growth Rate (Fibroblast; [4]): 0 |
| Cn1cnc2c(F)c(Nc3ccc(Br)cc3Cl)c(C(=O)NOCCO)cc21 [SELUMETINIB] | 0 |  |  |  | 1 |  | 0 | 0 | 0 | 0 |  |  |  | 1 | 1 | 1 | 0 | Growth Rate (HEK-293T; [4]): 1 |
| Cc1cc(Nc2nccc(C)n2)cc(-c2cnc([C@@]3(O)CC[C@H](C(=O)O)C(C)(C)C3)s2)c1 [MRL-SYKi] |  | 0 | 0 | 0 | 0 |  | 0 | 0 | 0 |  | 0 | 0 | 0 | 1 | 0 |  | 0 | Growth Rate (U2OS; [10]): 1; Growth Rate (Fibroblast; [7]): 1; Growth Rate (Fibroblast; [9]): 0 |
| Cl.Cl.c1ccc([C@@H]2C[C@H]2NC2CCNCC2)cc1 |  | 0 | 1 |  | 1 | 1 | 1 | 1 | 1 | 0 |  |  |  | 1 | 0 | 1 |  | Growth Rate (U2OS; [7]): 1; Growth Rate (Fibroblast; [4]): 1; Growth Rate (Fibroblast; [10]): 1 |
| N#Cc1c(O)nc(SCc2cccc(F)c2F)nc1C1CC1 | 0 | 1 | 1 | 1 | 1 |  | 1 | 1 | 1 | 0 | 1 | 1 | 1 | 1 | 0 |  |  | Growth Rate (HEK-293T; [9]): 0 |
